Laboratory results published in patent publication US20110009616A1, “AGENT FOR PREVENTING ARTERIOSCLEROSIS” (priority 2006, published 2011).

Assays:
bLOX-1 [1] = target: T1, bLOX-1 (Bos taurus, UniProt P79391); assay: Fluorescently labeled oxidized LDL uptake into CHO cells stably expressing bLOX-1 (Examples 6, 7); format: cell-based, bovine; design: By a positive screening using a full-length bLOX cDNA; expressed in transfected cells; conditions: Example 7; FIG. 6
Target sequence in this assay (P79391 whole entry): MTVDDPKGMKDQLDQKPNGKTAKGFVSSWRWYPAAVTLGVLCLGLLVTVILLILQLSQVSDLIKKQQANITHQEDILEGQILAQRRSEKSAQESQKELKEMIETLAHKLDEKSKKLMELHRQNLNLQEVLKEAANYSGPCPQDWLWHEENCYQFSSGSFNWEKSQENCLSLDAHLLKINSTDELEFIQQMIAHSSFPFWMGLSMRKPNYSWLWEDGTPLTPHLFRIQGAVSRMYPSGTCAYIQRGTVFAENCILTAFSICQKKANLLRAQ

bLOX-1 [2] = target: T1, bLOX-1; assay: Plate assay: binding of oxidized LDL to recombinant bLOX-1 (Test Example 1); design: 6xHis (N); made in house; host or cells: E. coli; species or system bovine; conditions: final concentration of 16 μM, FIG. 1; for binding rate of oxidized LDL to bLOX-1 (inhibition of binding): control without compounds = 100
Description: A LOX-1 antagonist activity of the agent for preventing arteriosclerosis obtained in the above-mentioned Example was evaluated on a LOX-1 binding inhibition rate to oxidized LDL using a recombinant LOX-1 protein obtained from E. coli.
As for the recombinant LOX-1, in cDNA of LOX-1 derived from bovine (bLOX-1) or derived from human (hLOX-1), a sequence to the C-terminal removing a transmembrane region was inserted into a pQE30 vector having a 6-histidine tag sequence (6×His) at the N-terminal (manufactured by Qiagen) so as to have a sequence aligned to a translation frame. The vector was transformed into E. coli able to be controlled by T5 promoter and the expression of each LOX-1 was induced under induction of 1 m M of isopropyl-1-thio-β-D-[…] (IPTG). After the induction of each expression at 37° C. for 3 hours, since the recombinant LOX-1 was obtained from an insoluble fraction, E. coli was lysed in a buffer containing 6 M guanidine hydrochloride and purified by affinity column chromatography using a Ni-NTA agarose column (manufactured by Qiagen) as the marker of 6×His (solvent: phosphoric acid buffer). Furthermore, each of the elution fractions containing LOX-1 was dialyzed in a 20 mM tris buffer (pH 9.0) and a 8M urea containing buffer, applied to a HiTrap Q column, an anion exchanger, (manufactured by Amersham), and eluted and purified with a linear concentration gradient of NaCl. Each of the fractions containing LOX-1 obtained above was reduced in a buffer containing excess amount of DTT (dithiothreitol), and then intramolecular S-S bonds were unwinded by a redox system using a mixture of oxidized […] low molecular thiol compounds. Each LOX-1 obtained above has a binding ability to the oxidized LDL and will be used as a LOX-1 standard for the following plate assays.
The plate assay was carried out using MaxiSorp Immuno Plate (96-well type, manufactured by NUNC). Each LOX-1 purified above was prepared with a PBS buffer so as to be 5 μg/mL, and 100 μL of the solution was applied to each well. After leaving at 4° C. overnight, each well was washed with 400 μL of a PBS buffer twice (400 μL×2) and 300 μL of a PBS buffer containing 25% BlockAce (manufactured by Dainippon Sumitomo Pharma Co., Ltd.) was applied to each well. After leaving at 4° C. overnight, each well was washed with 400 μL of a PBS buffer twice (400 μL×2), a solution of ethyl pheophorbide a was prepared with a PBS buffer containing 1% bovine serum albumin (BSA) so as to have an appropriate dilution rate, and 100 μL of the solution was applied to each well. After leaving at 4° C. overnight, each well was washed with 400 μL of a PBS buffer three times (400 μL×3), a solution of oxidized LDL was prepared with a PBS buffer so as to be 5 μg/mL, and 100 μL of the solution was applied to eachr well. After leaving at 4° C. overnight, each well was washed with 400 μL of a PBS buffer three times (400 μL×3), a horseradish peroxidase-conjugated anti-apolipoprotein B antibody (manufactured by The Binding Site) was diluted 1000 times with a PBS buffer, and 100 μL of the solution was applied to each well. After leaving at room temperature for 2 hours, each well was washed with 400 μL of a PBS buffer five times (400 μL×5), and 100 μL of a 3,3′,5,5′-tetramethylbenzidine (TMB) peroxidase-enzyme immunoassay (EIA)-substrate-kit reagent (manufactured by Bio-Rad) was applied to each well. After an appropriate reaction period, 50 μL of 2M H2SO4 was applied to each well to stop the reaction. Finally, a LOX-1 antagonist activity (an oxidized LDL binding inhibition rate to LOX-1) was determined by detection at 450 nm.
Target sequence in this assay (P79391 57-270 limits assumed): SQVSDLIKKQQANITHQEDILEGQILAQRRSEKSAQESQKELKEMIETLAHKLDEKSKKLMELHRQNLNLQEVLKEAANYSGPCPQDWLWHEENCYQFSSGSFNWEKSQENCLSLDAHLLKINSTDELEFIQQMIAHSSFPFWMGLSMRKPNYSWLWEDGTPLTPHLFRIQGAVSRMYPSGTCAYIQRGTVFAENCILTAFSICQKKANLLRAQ

[3] = test system: living cells (mitochondria activity); assay: Cytotoxicity, number of living cells by Cell counting Kit-8 (WST-8) (Example 5); format: cell-based; conditions: 7 hours with compound; concentrations where the inhibitory activities were effective; results not shown
Description: In order to examine cytotoxicities of the compounds in Examples 1 to 4 and Comparative Examples 1 to 9, the number of living cells was measured as follows. As a method for measuring the number of living cells, a MTT method using a reduction of MTT (3-(4,5-dimethyl-2-thiazolyl)-2,5-diphenyltetrazolium bromide) to formazan (formed as a poorly soluble precipitate) by dehydrogenase in mitochondria, and the like, are generally used. Thus, “Cell counting Kit-8” (manufactured by Dojindo Laboratories, WST-8 which forms a water soluble formazan is used instead of MTT), a modified method of the MTT method, was used for the measurement of the number of living cells. Specifically, 100 μL of cells were seeded into inner 60 wells of a 96-well plate (manufactured by Falcon) so as to be 3.0×10^4 cells/mL, respectively (in order to avoid temperature variation, 100 μL of a culture medium was only added into the outer 36 wells). After cultivating for 2 days (37° C.), 50 μL of the culture supernatant was removed and 50 μL of a new culture medium containing each compound with an appropriate dilution rate was added. After adding the new culture medium containing each compound, the cells were cultivated for 7 hours. After 7 hours, each well was washed with 100 μL of the culture medium without the compounds three times, and then 3 μL of a culture medium containing “WST-8”, a “Cell counting Kit-8” solution, was added to each well. After cultivating for 1 hour, absorbance at 450 nm of each culture medium was measured and converted to the number of living cells. It is considered that three washing operations in the process omit the effect of the compounds in the external solution on the absorbance.

Row | Compound | inhibition of DiI-OxLDL uptake in CHO cells expressing bLOX, compared with inhibition of CTB uptake (bLOX-1 [1]) | inhibition activity on binding of oxidized LDL to bLOX-1 (ranking among actives) (bLOX-1 [2]) | binding rate of oxidized LDL to bLOX-1 (inhibition of binding) (bLOX-1 [2]) | cytotoxicity (number of living cells) [3]
1 | C[C@@H]1[C@H](O)[C@@H](C)/C=C/C=C/CC/C=C/C=C/C=C/C=C/C(O[C@H]2O[C@H](C)[C@@H](O)[C@H](N)[C@@H]2O)CC2O[C@](O)(CC(O)C(O)CCC(O)CC(O)CC(O)CC(=O)O[C@H]1C)CC(O)C2C(=O)O (stereo partly drawn) [nystatin, Nystatin] | nearly equal to that of CTB |  |  | 
2 | C=CC1=C(C)c2cc3[nH]c(c4c5nc(cc6[nH]c(cc1n2)c(C)c6CC)C(C)=C5C(=O)C4C(=O)OC)C(CCC(=O)OCC)C3C (stereo not drawn) [ethyl pheophorbide a] |  | high inhibition activities | inhibit the binding significantly | did not show the cytotoxicity
3 | uroporphyrin III |  |  | inhibit the binding significantly | did not show the cytotoxicity
4 | hematoporphyrin |  | high inhibition activities | inhibit the binding significantly | did not show the cytotoxicity
